Read-outs that look alike come from different tables or passages of the source. Where a SMILES comes first, the peptide text is derived from it.
Key:
MCH1-KO mice = experiment: daily i.p. S38151 in MCH1-KO mice; format: in vivo, mouse
Experimental: In these studies, 13-week-old female C57BL/6J, ob/ob, and MCH1-KO mice were used. The mice were maintained on a 12-h light/dark cycle (lights on at 07:30 and off at 19:30) at 22 ± 3°C, and supplied with food pellets (6 mm diameter A03, UAR Laboratory chow, Epinay Villemuisson France) and tap water ad libitum. To induce obesity in C57BL/6J (creating diet-induced obese, or DIO, mice), mice were fed a high-fat diet (60 kcal% fat, 20 kcal% protein, 20 kcal% carbohydrate, ref D12492 from Research Diets, New Brunswick, NJ08901, USA) for 8 weeks starting at 4 weeks of age. In these experiments, DIO mice, ob/ob mice, and MCH^−/−1 mice were individually housed in a modular chamber that was placed on an activity platform to concurrently measure the food intake, water intake, and activity of the mice (ADDENFI, Les Cordeliers, Paris, France). For at least 2 weeks before experimentation, mice were habituated to a diet of 6 mm diameter food pellets of the following composition: 67.5% food flour, 26.5% sucrose, 5% gum tragacanth, 1.25% magnesium stearate (A03 UAR, Orge, France), and to i.p. injection. After this habituation period, food intake, drink intake, and body weight were measured for 3 consecutive days. The mice were randomized into three groups based on their food and water intake over the three preceding 24-h periods, and on their body weight. Next, the quantity of food eaten over each 24-h period during the 5 days of i.p. treatment with S38151 [10 and 30 mg/kg/day (7 and 20 μmol/kg/day)] or vehicle was determined and corrected for spillage.
Figure 10 The effects of repeated daily S38151 injection on food and water intake, body weight, and motility in MCHR1-KO mice. MCH1-KO mice were administered S38151 (10 and 30 mg/kg, i.p.) or vehicle (normal saline i.p.) for 5 consecutive days. Results are expressed as mean ± SEM (n = 8 mice per group).

Wistar rats = experiment: NEI-MCH-induced food intake after acute i.c.v. injection; format: in vivo, rat
From the text: Wistar and Zucker fa/fa rats were anesthetized with Forène (Abbott Laboratories, Queenborough, UK), and a stainless steel guide cannula (Plastic Products Co, Roanoke, Va, USA) was stereotaxically implanted into the right lateral ventricle at the following coordinates relative to the bregma: AP −0.8 mm, L = −1.2 mm, and V = −3.5 mm. After a 7-day recovery period, during which the animals were handled each day to minimize non-specific stress, they were lightly anesthetized with Forène. Human/mouse/rat MCH (1 μg in a volume of 2.5 μ L, Bachem, Voisins-le-Bretonneux, France) or an equivalent volume of artificial cerebrospinal fluid (CSF) was then injected through the intraventricular cannula. Immediately after injection, the animals quickly recovered and were returned to their home cages. Only those animals responding within 2 h with a robust increase in food intake, indicating correct cannula placement, were used in the experiments described below. Two days after MCH injection, the rats were randomly assigned to different groups and studied in one of the following protocols.
Wistar rats were habituated for at least 2 weeks before experiment to a diet of food pellets (6 mm diameter) of the following composition: 67.5% food flour, 26.5% sucrose, 5% gum tragacanth, and 1.25% magnesium stearate (A03 UAR, Orge, France). The food pellets were present in a metal food hopper attached to the inside of each cage. At 09:00 on the day of study, the animals were lightly anesthetized with Forene® (Abbott, France). Thereafter, rats were injected intra-cerebroventricular (i.c.v.) with vehicle (artificial CSF) or with S38151 [0.5, 5, 10, 20, 30, or 50 nmol/kg ([…], 14, 28, 42, or 70 μg/kg, respectively)] in a volume of 2.5 μL, 20 min prior to the injection of human/rat NEI-MCH [5 nmol/kg (18.7 μg/kg) in a volume of 2.5 μL].
Food intake was measured at different times after peptide injection. Food spillage was carefully quantified during each time period, and intake measurements were corrected for this loss. At the end of the experiments, the animals were euthanized and the positions of the cannulae were assessed by the injection of 100 μ L Evans blue dye (2 mg/mL) followed by the visual examination of brain slices. Only data obtained from animals with correctly positioned cannulae were included in the final data analysis.
Figure 3 The effect of S38151 on NEI-MCH-induced food intake in Wistar rats after acute central administration. Satiated rats were injected (i.c.v.) at the beginning of the light phase with 5 μg NEI-MCH, 5 μg NEI-MCH + differing doses of S38151 (0.5–50 nmol/kg), or an equivalent volume of artificial cereblospinal fluid vehicle (5 μL). Cumulative food intake was measured at 1, 2, 4, 6, and 24 h post-injection.

Zucker fa/fa rats [1] = experiment: acute i.p. administration, food intake in fasted rats; format: in vivo, rat; conditions: S38151 30 mg/kg i.p.
Experimental: Zucker fa/fa rats were habituated in the same conditions as Wistar rats (described in section “Acute Central Peptide Administration and Feeding Studies in Wistar Rats”). At 09:00 on the day of study, after fasting for 24 h, either vehicle (normal saline) or S38151 [30 mg/kg (20 μmol/kg)] was administered intraperitoneally (i.p.).
Figure 6 The effect of S38151 on food intake in Zucker fa/fa rats after acute peripheral administration. Rats were fasted for 24 h, and then injected (i.p.) at the beginning of the light phase with vehicle (normal saline) or 30 mg/kg S38151. Cumulative food intake was measured 1, 2, 4, 6, and 24 h after injection. Results are expressed as mean ± SEM (n = 16 rats per group).

Zucker fa/fa rats [2] = experiment: conditioned taste aversion; format: in vivo, rat; conditions: test days 4, 7, 11, 14 versus control; lithium chloride 75 mg/kg i.p.; S38151 20 nmol/kg i.c.v.; n = 10-11
MCH1 = conditions: ref Audinot et al., 2009, cited from earlier work; for Kb: full antagonist, CHO cells over-expressing MCH1
From the text: S38151 was synthesized during a process that was attempting to find peptides or pseudopeptides with affinity at MCH1 receptor that also had greater stability in biological media. This pseudopeptide is derived from another, very similar agonist, pGua (MCH7-17) (Audinot et al., [2001a], [2009]). […] This activity was specific to MCH1, since it ...

[3] = S38151 10 and 30 mg/kg i.p. daily for 5 days, n = 8

Question: With `CSCC[C@@H]1NC(=O)[C@@H](NC(=O)c2ccc(NC(=N)N)cc2)CSSC[C@@H](C(=O)N[C@@H](Cc2c[nH]c3ccccc23)C(=O)O)NC(=O)[C@@H]2CCCN2C(=O)[C@H](CCCNC(=N)N)NC(=O)[C@H](Cc2ccc(O)cc2)NC(=O)[C@H](C(C)C)NC(=O)[C@H](CCCNC(=N)N)NC(=O)[C@H](CC(C)C)NC1=O` [S38151, p-guanidinobenzoyl-(Des-Gly10)-MCH (7–17)] (HELM PEPTIDE1{[N=C(N)Nc1ccc(C(=O)[*:2])cc1].C.M.L.R.V.Y.R.P.C.W}$PEPTIDE1,PEPTIDE1,2:R3-10:R3$$$V2.0; C-terminus assumed) as the compound, how does the motility (MCH1-KO mice; S38151 30 mg/kg (20 μmol/kg/day) i.p. daily for 5 days) read?
Answer: The motility was “significant reduction”.

Question: What about the body weight (MCH1-KO mice; [3]) of the same compound?
Answer: The body weight was “did not induce any significant effects”.

Question: What about the drink intake (MCH1-KO mice; [3]) of the same compound?
Answer: Its drink intake is “did not induce any significant effects”.

Question: And the food intake (MCH1-KO mice; [3])?
Answer: Its food intake is “did not induce any significant effects”.

Question: What about the “food intake during the entire 24-h period versus control group” value (Wistar rats; NEI-MCH alone or any combination of NEI-MCH and S38151, i.c.v.) of the same compound?
Answer: The value was “not significantly altered”.

Question: And the “inhibition of NEI-MCH-induced food intake” value (Wistar rats; S38151 50 nmol/kg i.c.v.)?
Answer: Its value is “Nearly complete inhibition”.

Question: And the “inhibition of the increase in food intake produced by NEI-MCH” value (Wistar rats; S38151 0.5-50 nmol/kg i.c.v. 20 min before NEI-MCH, first and second hours)?
Answer: Its value is “statistically significant dose-related inhibition”.

Question: And the “food intake, first hour” value (Zucker fa/fa rats [1]; 24-h fasted Zucker fa/fa rats, control 3.6 ± 0.4 g, mean ± SEM, n = 16)?
Answer: The value was 0.09 ± 0.06 g.

Question: What about the “inhibition of food consumption within 1 h” value (Zucker fa/fa rats [1]; Zucker fa/fa rats) of the same compound?
Answer: Its value is “complete inhibition”.

Question: What about the “decrease in food intake up to 24 h after drug administration” value (Zucker fa/fa rats [1]; cumulative food intake versus control) of the same compound?
Answer: Its value is “maintained statistical significance”.

Question: And the 0.2% saccharine consumption (Zucker fa/fa rats [2])?
Answer: Its 0.2% saccharine consumption is “did not affect”.

Question: And the Ki (MCH1; [125I]-S36057 binding, Chinese hamster ovary cells over-expressing MCH1)?
Answer: The Ki was 80 nM.

Question: What about the Kb (MCH1; read-out: KB, GTPγS binding assay) of the same compound?
Answer: Its Kb is 4.3 nM.

Question: And the Kb (MCH1; read-out: KB, calcium flux assay)?
Answer: The Kb was 210 nM.
